The values that follow come from PMC10873626, “Acceleration of infectious disease drug discovery and development using a humanized model of drug metabolism” (Proceedings of the National Academy of Sciences of the …, 2024).

Read-outs that look alike come from different tables or passages of the source.

The conditions of data set [1]: mouse, hepatocytes.
The conditions of data set [2]: mouse, hepatocytes. This is another data set of the same source.
The conditions of data set [3]: hepatocytes.
Data set [4] deals with CYP. The conditions noted are these: cited from earlier work.
The conditions of data set [5]: microsomes.
Data set [6] is described as follows: Oral pharmacokinetics in 8HUM mice. The conditions noted are these: female, mouse, whole blood.
The conditions of data set [7]: human, 100 mg BID; ref SI 8; cited from earlier work.
Data set [8] is described as follows: Oral pharmacokinetics in WT mice. The conditions noted are these: female, mouse, whole blood.
For data set [9] the following is noted: mouse, microsomes.
The conditions of data set [10]: mouse, microsomes. This is another data set of the same source.
For data set [11] the following is noted: mouse, microsomes. This is another data set of the same source.
Data set [12] has as its system M. tuberculosis H37Rv. Kind of data set: Acute M. tuberculosis infection efficacy model in 8HUM (lung CFU). Format: in vivo, Mycobacterium tuberculosis. The conditions noted are these: 8HUM, day 9, 30 mg/kg QD.

`CCOc1ccc2ccc(=O)oc2c1` [7-ethoxycoumarin]: the “CLint, WT” value in data set [1] came out at 39 mL/min/g liver. Further, the “CLint, 8HUM” value in [2] is listed as 13.8 mL/min/g liver. In addition, the “CLint, Human” value in data set [3] is 8.2 mL/min/g liver.
As for `CC1(C)S[C@@H]2[C@H](NC(=O)[C@H](N)c3ccc(O)cc3)C(=O)N2[C@H]1C(=O)O` [Amoxicillin], the “CYP interaction: Inhibitor” value in data set [4] is 2C19.
As for `CC(C)CN(C[C@@H](O)[C@H](Cc1ccccc1)NC(=O)O[C@H]1CCOC1)S(=O)(=O)c1ccc(N)cc1` [Amprenavir], the “CYP interaction: Inhibitor” value in [4] was 3A4.
Turning to `CO[C@H]1O[C@@H]2O[C@@]3(C)CC[C@H]4[C@H](C)CC[C@@H]([C@H]1C)[C@@]24OO3` [Artemether], the “CYP interaction: Inhibitor” value in [4] was 3A4.
Consider `CC[C@H]1OC(=O)[C@H](C)[C@@H](O[C@H]2C[C@@](C)(OC)[C@@H](O)[C@H](C)O2)[C@H](C)[C@@H](O[C@@H]2O[C@H](C)C[C@H](N(C)C)[C@H]2O)[C@](C)(OC)C[C@@H](C)C(=O)[C@H](C)[C@@H](O)[C@]1(C)O` [Clarithromycin], for which the “CYP interaction: Substrate” value in [4] is on record as 3A4. Moreover, in [5], the “CLint, Human” value was found to be 1.4 mL/min/g liver.
Compound `C[C@]1(COc2ccc(N3CCC(Oc4ccc(OC(F)(F)F)cc4)CC3)cc2)Cn2cc([N+](=O)[O-])nc2O1` [Delamanid] had a CL/F in data set [6] of 20.7 mL/min/kg. In data set [7], the “apparent volume of distribution (V/F)” value was 11.9 L/kg and the “oral clearance (CL/F)” value is reported as 9.12 mL/min/kg. For the same compound, the “CLint, Human” value in data set [5] is 0.8 mL/min/g liver. In data set [8], the CL/F is 110 mL/min/kg.
`O=C(O)Cc1ccccc1Nc1c(Cl)cccc1Cl` [Diclofenac]: in data set [2], the “CLint, 8HUM” value stood at 1.8 mL/min/g liver.
Turning to `CC[C@H]1OC(=O)[C@H](C)[C@@H](O[C@H]2C[C@@](C)(OC)[C@@H](O)[C@H](C)O2)[C@H](C)[C@@H](O[C@@H]2O[C@H](C)C[C@H](N(C)C)[C@H]2O)[C@](C)(O)C[C@@H](C)C(=O)[C@H](C)[C@@H](O)[C@]1(C)O` [Erythromycin], the “CLint, WT” value in [1] was 1.3 mL/min/g liver. For the same compound, the “CLint, 8HUM” value in data set [2] is on record as 0.5 mL/min/g liver. The entries for the “CLint, Human” value in data set [5] and in data set [3] were 3.3 mL/min/g liver and 0.5 mL/min/g liver, respectively.
In the case of `Cc1cc(C#N)cc(C)c1Oc1nc(Nc2ccc(C#N)cc2)nc(N)c1Br` [Etravirine], in data set [5], the “CLint, Human” value is on record as 1 mL/min/g liver.
With `CCCCN(CCCC)CCC(O)c1cc2c(Cl)cc(Cl)cc2c2cc(C(F)(F)F)ccc12` (stereo not drawn) [Halofantrine], the “CYP interaction: Substrate” value in [4] is 3A4. Also, the “CLint, Human” value in data set [5] stood at 1.7 mL/min/g liver.
As for `CC(=O)NC[C@H]1CN(c2ccc(N3CCOCC3)c(F)c2)C(=O)O1` [Linezolid], the “CYP interaction: Substrate” value in data set [4] is given as 3A4. Further, the “CLint, CypC4KO” value in data set [9] was determined as 0.5 mL/min/g liver. The “CLint, WT” value in data set [10] is 0.5 mL/min/g liver. Further, the “CLint, 8HUM” value in data set [11] and in data set [2] was 0.5 mL/min/g liver throughout.
On to `OC(c1cc(C(F)(F)F)nc2c(C(F)(F)F)cccc12)C1CCCCN1` (stereo not drawn) [Mefloquine], for which the “CLint, CypC4KO” value in data set [9] was found to be 0.5 mL/min/g liver. Besides, the “CLint, WT” value in [1] was found to be 0.5 mL/min/g liver. Moreover, the “CLint, 8HUM” value in data set [2] is listed as 0.5 mL/min/g liver. Also, the “CLint, Human” value in data set [5] and in data set [3] was 0.5 mL/min/g liver throughout.
Consider `CO[C@H]1C[C@H](O[C@H]2[C@H](C)[C@@H](O[C@@H]3O[C@H](C)C[C@H](N(C)C)[C@H]3O)[C@@H](C)C[C@@]3(CO3)C(=O)[C@H](C)[C@@H](O)[C@@H](C)[C@@H](C)OC(=O)[C@@H]2C)O[C@@H](C)[C@@H]1O` [Oleandomycin], for which, in data set [4], the “CYP interaction: Inhibitor” value is 3A4. In data set [9], the “CLint, CypC4KO” value amounted to 50 mL/min/g liver. Further, in data set [5], the “CLint, Human” value worked out at 18.5 mL/min/g liver.
As for `CCOc1ccc(NC(C)=O)cc1` [Phenacetin], the “CLint, 8HUM” value in data set [2] came to 1.3 mL/min/g liver.
Take `CC[C@@H]([C@H](C)O)n1ncn(-c2ccc(N3CCN(c4ccc(OC[C@@H]5CO[C@@](Cn6cncn6)(c6ccc(F)cc6F)C5)cc4)CC3)cc2)c1=O` [Posaconazole]: the “CLint, WT” value in data set [10] turned out to be 0.5 mL/min/g liver. Also, the “CLint, 8HUM” value in [11] was determined as 0.5 mL/min/g liver. Also, the “CLint, Human” value in [5] turned out to be 0.5 mL/min/g liver.
As to `[H]/N=C(\N/C(=N/[H])Nc1ccc(Cl)cc1)NC(C)C` [Proguanil], the “CYP interaction: Substrate” value in data set [4] was 2C19. Also, the “CLint, WT” value in data set [10] came to 0.5 mL/min/g liver. Further, in data set [11], the “CLint, 8HUM” value came to 0.5 mL/min/g liver. For the same compound, in [5], the “CLint, Human” value was 0.3 mL/min/g liver.
For the compound `C=C[C@H]1C[N@@]2CC[C@H]1C[C@@H]2[C@@H](O)c1ccnc2ccc(OC)cc12` [Quinidine], the “CYP interaction: Inhibitor” value in data set [4] was 2D6.
Turning to `CO[C@H]1/C=C/O[C@@]2(C)Oc3c(C)c(O)c4c(O)c(c(/C=N/N5CCN(C)CC5)c(O)c4c3C2=O)NC(=O)/C(C)=C\C=C\[C@H](C)[C@H](O)[C@@H](C)[C@@H](O)[C@@H](C)[C@H](OC(C)=O)[C@@H]1C` [Rifampicin], the “CLint, Human” value in data set [5] amounted to 0.8 mL/min/g liver.
Take `CO[C@H]1/C=C/O[C@@]2(C)Oc3c(C)c(O)c4c(O)c(c(/C=N/N5CCN(C6CCCC6)CC5)c(O)c4c3C2=O)NC(=O)/C(C)=C\C=C\[C@H](C)[C@H](O)[C@@H](C)[C@@H](O)[C@@H](C)[C@H](OC(C)=O)[C@@H]1C` [Rifapentine]: the “CYP interaction: Inducer” value in data set [4] is 2C8, 2C9.
With `CC(C)c1nc(CN(C)C(=O)N[C@H](C(=O)N[C@@H](Cc2ccccc2)C[C@H](O)[C@H](Cc2ccccc2)NC(=O)OCc2cncs2)C(C)C)cs1` [Ritonavir], the “CLint, Human” value in data set [5] was found to be 6.6 mL/min/g liver.
Consider `C[C@H](Cn1cnc2c(N)ncnc21)OCP(=O)(O)O` [Tenofovir], for which, in [4], the “CYP interaction: Substrate” value was 1A2.
Take `COc1c(N2C[C@@H]3CCCN[C@@H]3C2)c(F)cc2c(=O)c(C(=O)O)cn(C3CC3)c12` [moxifloxacin]: the “log CFU reduction in the lungs compared to the control group” value in [12] is 3.9 log CFU.
